Where two headings read alike, the source gives them in different places.
Assays:
[1] = test system: lepidopteran larvae: cabbage loopers (Trichoplusia ni) and beet armyworms (Spodoptera exigua); assay type: in vivo; details: leaf discs
From the text: A second series of tests involved romaine lettuce discs approximately ⅝ inch in diameter. (L. sativa). They were dipped in the treatment solution one second per disc. This test involved the 5/5 configuration, i.e., 5 treated and 5 untreated. The infestation involved […] lepidopteran larvae at the 3rd to 4th instar development per container: four cabbage loopers (Trichoplusia ni), and four beet armyworms (Spodoptera exigua) were employed. The test containers were placed in a dark humidity cabinet at 15° C. and 80% relative humidity. Visual evaluations of the average percent damage were taken at 24, 48 and 72 hours after the initiation of infestation. Damage was evaluated in 5% increments based on total disc area.
In the tests reported in Table 8 pages 29-32), romaine lettuce leaf discs ⅝″ in diameter (L. sativa) were dipped in the treatment solution for about one second per disc. Infestation was provided by eight lepidopteran larvae at the 3rd to 4th instar development per container. Four cabbage loopers (Trichoplusia ni) and four beet armyworms (Spodoptera exigua) were employed in infestation. The containers were placed in a dark humidity cabinet at 15° C. and 80% relative humidity. Visual observations of the average percent damage was taken at 24, 48 and 72 hours after infestation. Damage evaluation was by 5% increments over the total disc area.
In the tests results provided in Table 8, the identity and concentrations of the insecticide was identical to the tests results reported in Table 7. The concentration of 200:1 was employed for the no amino oxide, no buffer and buffered amine oxide system. This series of tests, however, reported how the percent damage changed with time at the respective 24, 48 and 72 hour intervals.

[2] = test system: lepidopteran larvae: cabbage loopers (Trichoplusia ni) and beet armyworms (Spodoptera exigua); assay type: in vivo; details: plants
Experimental: In a first group of tests, the results of which are shown in Table 7 (pages 22-24), romaine lettuce plants two to three inches in height were exposed to 10 milliliters of solution applied to each plant using a low volume trigger spray. With respect to containers 0-7, ten plants were employed per container, nine were treated and one was an internal control. In containers M-H, ten plants per container were used, five were treated and 5 were internal controls. Each container was infested with 30 lepidopteran larvae between the 5th and 6th instar development. Fifteen cabbage loopers (Trichoplusia ni) and 15 beet armyworms (Spodoptera exigua) were used to infest the romaine lettuce plants. Visual evaluations for the average percentage total surface area damage were taken 24 hours after infestation. Percentage damage was evaluated by 5% increments for total damage across all plant leaves.
As indicated in the first column of Table 7, in some tests, no insecticide was employed and there were two controls; a no water control and a no dye control. A wide variety of insecticides selected from the following group were tested: Chlorantranilopril, Acephate, Methoxyfenozide, Spinosad, Permethrin, and Indoxacarb. The product concentration is shown in PPM in column 2. Column 3 is divided into two subunits, the first being CO3 and the second, PO4. In all instances in columns 3, 4 and 5 and their sub-columns, the concentrations used were 200:1. The fourth column employed amine oxide, but no buffer. […] Two sub-columns each are represented for CO3 and PO4. The final column is a reading of the Percent Lepidopteran Damage to the romaine lettuce plants after 24 hours.
In addition to testing the buffered amine system of the present invention with the two amine oxides identified as CO3 and PO4 and their use with 12 carbon length and a mixture of 12 and 18 designated 1218 for comparative data purposes various differences were created in the testing. Some of the tests were performed with (a) no insecticide along with (b) no amine oxide for CO3 and PO4 and (c) with no buffer, but with amine oxide. Also, tests were run using no insecticide and no water control with no foliar application being made. Tests with no insecticide and no dye control employed foliar application of water only. The tests were conducted with all of the testing on the buffer alone, the amine oxide alone and the buffered amine oxide system of the present invention in the concentration of 200:1.

[3] = insecticide + CO3 buffer 200:1, no amine oxide, PPM: Chlorantranilopril 60, Acephate 70, Methoxyfenozide 100, Spinosad 30, Permethrin 10, Indoxacarb 50
[4] = insecticide + PO4 buffer 200:1, no amine oxide, PPM: Chlorantranilopril 60, Acephate 70, Methoxyfenozide 100, Spinosad 30, Permethrin 10, Indoxacarb 50
[5] = insecticide + amine oxide 12, no buffer, 200:1, PPM: Chlorantranilopril 60, Acephate 70, Methoxyfenozide 100, Spinosad 30, Permethrin 10, Indoxacarb 50
[6] = insecticide + amine oxide 1218, no buffer, 200:1, PPM: Chlorantranilopril 60, Acephate 70, Methoxyfenozide 100, Spinosad 30, Permethrin 10, Indoxacarb 50
[7] = insecticide + buffered amine oxide system CO3, 12, 200:1, PPM: Chlorantranilopril 60, Acephate 70, Methoxyfenozide 100, Spinosad 30, Permethrin 10, Indoxacarb 50
[8] = insecticide + buffered amine oxide system CO3, 1218, 200:1, PPM: Chlorantranilopril 60, Acephate 70, Methoxyfenozide 100, Spinosad 30, Permethrin 10, Indoxacarb 50
[9] = insecticide + buffered amine oxide system PO4, 12, 200:1, PPM: Chlorantranilopril 60, Acephate 70, Methoxyfenozide 100, Spinosad 30, Permethrin 10, Indoxacarb 50
[10] = insecticide + buffered amine oxide system PO4, 1218, 200:1, PPM: Chlorantranilopril 60, Acephate 70, Methoxyfenozide 100, Spinosad 30, Permethrin 10, Indoxacarb 50
[11] = insecticide alone, highest, PPM: Chlorantranilopril 120, Acephate 140, Methoxyfenozide 200, Spinosad 60, Permethrin 20, Indoxacarb 100
[12] = insecticide alone, increased, PPM: Chlorantranilopril 90, Acephate 105, Methoxyfenozide 150, Spinosad 45, Permethrin 15, Indoxacarb 75
[13] = insecticide alone, PPM: Chlorantranilopril 60, Acephate 70, Methoxyfenozide 100, Spinosad 30, Permethrin 10, Indoxacarb 50

For COP(=O)(NC(C)=O)SC (centres unmarked) [Acephate], the “Percent Lepidopteran Damage to Romaine Lettuce 24 hr” value [1, 3] was 50.0%, the “Percent Lepidopteran Damage to Romaine Lettuce 24 hr” value [1, 4] was 38.5% and the “Percent Lepidopteran Damage to Romaine Lettuce 24 hr” value [1, 5] was 27.0%. For the same compound, the “Percent Lepidopteran Damage to Romaine Lettuce 24 hr” value [1, 6] was 22.0%, the “Percent Lepidopteran Damage to Romaine Lettuce 24 hr” value [1, 7] was 34.0% and the “Percent Lepidopteran Damage to Romaine Lettuce 24 hr” value [1, 8] was 29.5%. The “Percent Lepidopteran Damage to Romaine Lettuce 24 hr” value [1, 9] was 43.5%, the “Percent Lepidopteran Damage to Romaine Lettuce 24 hr” value [1, 10] was 18.0% and the “Percent Lepidopteran Damage to Romaine Lettuce 24 hr” value [1, 11] was 29.0%. For the same compound, the “Percent Lepidopteran Damage to Romaine Lettuce 24 hr” value [1, 12] was 27.0%, the “Percent Lepidopteran Damage to Romaine Lettuce 24 hr” value [1, 13] was 27.5% and the “Percent Lepidopteran Damage to Romaine Lettuce 48 hr” value [1, 3] was 57.5%. For the same compound, the “Percent Lepidopteran Damage to Romaine Lettuce 48 hr” value [1, 4] was 53.0%, the “Percent Lepidopteran Damage to Romaine Lettuce 48 hr” value [1, 5] was 49.5% and the “Percent Lepidopteran Damage to Romaine Lettuce 48 hr” value [1, 6] was 52.5%. For the same compound, the “Percent Lepidopteran Damage to Romaine Lettuce 48 hr” value [1, 7] was 63.5%, the “Percent Lepidopteran Damage to Romaine Lettuce 48 hr” value [1, 8] was 50.5% and the “Percent Lepidopteran Damage to Romaine Lettuce 48 hr” value [1, 9] was 55.5%. The “Percent Lepidopteran Damage to Romaine Lettuce 48 hr” value [1, 10] was 32.5%, the “Percent Lepidopteran Damage to Romaine Lettuce 48 hr” value [1, 11] was 35.5% and the “Percent Lepidopteran Damage to Romaine Lettuce 48 hr” value [1, 12] was 44.5%. The “Percent Lepidopteran Damage to Romaine Lettuce 48 hr” value [1, 13] was 47.5%, the “Percent Lepidopteran Damage to Romaine Lettuce 72 hr” value [1, 3] was 61.0% and the “Percent Lepidopteran Damage to Romaine Lettuce 72 hr” value [1, 4] was 68.5%. The “Percent Lepidopteran Damage to Romaine Lettuce 72 hr” value [1, 5] was 59.5%, the “Percent Lepidopteran Damage to Romaine Lettuce 72 hr” value [1, 6] was 67.0% and the “Percent Lepidopteran Damage to Romaine Lettuce 72 hr” value [1, 7] was 66.0%. For the same compound, the “Percent Lepidopteran Damage to Romaine Lettuce 72 hr” value [1, 8] was 63.5%, the “Percent Lepidopteran Damage to Romaine Lettuce 72 hr” value [1, 9] was 72.0% and the “Percent Lepidopteran Damage to Romaine Lettuce 72 hr” value [1, 10] was 51.0%. The “Percent Lepidopteran Damage to Romaine Lettuce 72 hr” value [1, 11] was 42.0%, the “Percent Lepidopteran Damage to Romaine Lettuce 72 hr” value [1, 12] was 47.0% and the “Percent Lepidopteran Damage to Romaine Lettuce 72 hr” value [1, 13] was 79.5%. For the same compound, the “Percent Lepidopteran Damage to Romaine Lettuce 24 hr” value [2, 3] was 31.0%, the “Percent Lepidopteran Damage to Romaine Lettuce 24 hr” value [2, 4] was 20.0% and the “Percent Lepidopteran Damage to Romaine Lettuce 24 hr” value [2, 5] was 36.0%. For the same compound, the “Percent Lepidopteran Damage to Romaine Lettuce 24 hr” value [2, 6] was 28.0%, the “Percent Lepidopteran Damage to Romaine Lettuce 24 hr” value [2, 7] was 11.5% and the “Percent Lepidopteran Damage to Romaine Lettuce 24 hr” value [2, 8] was 4.5%. The “Percent Lepidopteran Damage to Romaine Lettuce 24 hr” value [2, 9] was 7.5%, the “Percent Lepidopteran Damage to Romaine Lettuce 24 hr” value [2, 10] was 1.0% and the “Percent Lepidopteran Damage to Romaine Lettuce 24 hr” value [2, 11] was 13.0%. For the same compound, the “Percent Lepidopteran Damage to Romaine Lettuce 24 hr” value [2, 12] was 16.5% and the “Percent Lepidopteran Damage to Romaine Lettuce 24 hr” value [2, 13] was 22.7%.
